Experimental data reported in patent publication EP4438596A1, “DIAMINOPYRIMIDINE DERIVATIVES AS HDAC AND DHFR DUAL-TARGETING INHIBITORS AND USE THEREOF IN PREVENTING AND TREATING MALARIA” (Université de Lille, priority 2023, dated 2024).
Where a name gives a salt, the structure may show the parent alone. Read-outs that look alike come from different tables or passages of the source.

Experiments:
[1] = tested on: multidrug-resistant P. falciparum line Dd2; assay: Plasmodium falciparum growth inhibition assay (SYBR Green I, flow cytometry), multidrug-resistant line; type: cell-based; conditions: Plasmodium falciparum, DD2, 48 h, line resistant to CQ, PYR and mefloquine, mean ± SD, n ≥ 2, read-out: PfDd2 IC50
Method: (§1) Plates were incubated under standard P. falciparum culture conditions for 48 h. […] Fixed parasitized red blood cells (RBC) were stored at 4 °C in the dark until flow cytometry analysis. Parasite growth was assessed by flow cytometry on a BD FACS Cantoll (BD Biosciences) or a Attune™ NxT Flow Cytometer (Invitrogen). Cell doublets were excluded from the analysis using a forward scatter (FSC)-width versus FSC-area dot plot. Infected and uninfected erythrocytes were gated on the basis of their FSC and side scatter (SSC) signals. Fluorescence analysis (Green fluorescence FITC) was performed using BD FACSDiva software (BD Biosciences) on a total of 200,000 acquired events. […] Fluorescence of non-infected RBC was adjusted to plot between 10° and 10^2. Results are expressed as the percentage of growth inhibition.
(§2) All IC50 values were calculated using log-linear interpolation (www.antimalarial-icestimator.net), with mean values (± SD) determined over at least two independent experiments.

[2] = tested on: P. berghei ANKA parasites; assay: Peters 4-day suppressive test, oral efficacy in P. berghei-infected mice; type: in vivo, Plasmodium berghei
Method: Compounds powder was dissolved in DMSO and sonicated for 10 min. Appropriate volume of 50%W/v HPβCD was added dropwise under gentle swirling. After 10 min sonication, DPBS was added dropwise under gentle swirling and the mixture was sonicated again for 10 min. After checking the pH (5.5 - 7), the solution was filtered (0.22µm) and conserved at room temperature for max 2 days. Final concentration of compounds was 2.5 mg/mL, 1 mg/mL or 0.1 mg/mL for mice treatment with 25 mg/kg, 10 mg/kg or 1mg/kg doses.
10 weeks-old Balb/C male mice were purchased from Janvier Labs.
P. berghei ANKA parasites stabilates conserved in liquid nitrogen were thawed and injected intraperitoneally (ip) into 2-3 mice (10^6 infected red blood cells (RBC) / mouse). When parasitemia reached 3-5%, mice were bled and groups of six BALB/c male mice were infected with 10^6 P. berghei ANKA parasites (day 0), and treated per os (p.o.) twice a day on days 0, 1, 2 and 3. […] On day 4 post infection (p.i.), the peripheral blood parasitemia of all mice was evaluated via microscopic examination of Giemsa-stained thin blood smears. Parasitemia was then followed for two weeks.

[3] = tested on: P. falciparum 3D7-infected erythrocytes; assay: Plasmodium falciparum growth inhibition assay (SYBR Green I, flow cytometry), drug-sensitive strain; type: cell-based
Method: as §1, §2

[4] = Experiment 3, Balb/C mice, 1 mg/kg p.o. twice a day on days 0-3, day 4 p.i.
[5] = Experiment 3, Balb/C mice, 1 mg/kg p.o. twice a day on days 0-3, day 5 p.i.
[6] = Experiment 3, Balb/C mice, 1 mg/kg p.o. twice a day on days 0-3, day 6 p.i.
[7] = Experiment 3, Balb/C mice, 1 mg/kg p.o. twice a day on days 0-3, day 7 p.i.
[8] = Experiment 3, Balb/C mice, 1 mg/kg p.o. twice a day on days 0-3, day 8 p.i.
[9] = Experiment 3, Balb/C mice, 1 mg/kg p.o. twice a day on days 0-3, day 10 p.i.
[10] = Plasmodium falciparum, 3D7, Erythrocyte, 48 h incubation, mean ± SD, n ≥ 2, read-out: Pf3D7 IC50
[11] = Plasmodium falciparum, 3D7, Erythrocyte, 48 h incubation, read-out: IC50 (Pf3D7)
[12] = Plasmodium falciparum, 3D7, Erythrocyte, 48 h, read-out: Pf3D7 IC50

CCc1nc(N)nc(N)c1OCCCOc1ccccc1CCC(=O)NO.Cl [1·HCl, 3-(2-[3-(2,4-Diamino-6-ethylpyrimidin-5-yloxy)propoxy]phenyl)-N-hydroxypropanamide hydrochloride]
IC50 [1]: 19.8 ± 0.9 nM
activity in vivo against Plasmodium berghei ([2]; Experiment 1 (Fig. 1), Balb/C mice, 10mg/kg and 25mg/kg orally twice a day on days 0,1,2,3): active in vivo
parasites in treated mice ([2]; Experiment 3, 1 mg/kg p.o. twice a day on days 0-3, day 4 p.i.): undetectable
number of mice showing blood parasites [2, 4]: 0/6
parasitemia (mean ± sd) [2, 4]: 0%
number of mice showing blood parasites [2, 5]: 1/6
parasitemia (mean ± sd) [2, 5]: 0,07 ± 0,16%
number of mice showing blood parasites [2, 6]: 1/6
parasitemia (mean ± sd) [2, 6]: 0,15 ± 0,37%
number of mice showing blood parasites [2, 7]: 1/6
parasitemia (mean ± sd) [2, 7]: 0,31 ± 0,76%
number of mice showing blood parasites [2, 8]: 1/6
parasitemia (mean ± sd) [2, 8]: 1,31 ± 3,21%
number of mice showing blood parasites [2, 9]: 1/6
parasitemia (mean ± sd) [2, 9]: 0,7 ± 1,72%
parasites in treated mice ([2]; Experiments 1 and 2, 10 mg/kg p.o. twice a day on days 0-3, day 4 p.i.): undetectable
parasites in treated mice, follow-up ([2]; Experiments 1 and 2, 10 mg/kg p.o. twice a day on days 0-3, until the end of the experiments): remained undetectable
parasite clearance after oral administration ([2]; oral route, 10 mg/kg): achieved parasite clearance
IC50 [3, 10]: 0.17 ± 0.018 nM
IC50 [3, 11]: < 0.2 nM

CCc1nc(N)nc(N)c1OCCCCOc1ccccc1CCC(=O)NO [3·HCl, 3-(2-[4-(2,4-Diamino-6-ethylpyrimidin-5-yloxy)butoxy]phenyl)-N-hydroxypropanamide hydrochloride]
IC50 [3, 10]: 0.451 ± 0.088 nM

CCc1nc(N)nc(N)c1OCCCOc1cc(OC)ccc1CCC(=O)NO [4·HCl, 3-(2-[3-(2,4-Diamino-6-ethylpyrimidin-5-yloxy)propoxy]-4-methoxyphenyl)-N-hydroxypropanamide hydrochloride]
IC50 [1]: 6.2 ± 0.5 nM
IC50 [3, 10]: 0.173 ± 0.122 nM
IC50 [3, 11]: < 0.2 nM

CCc1nc(N)nc(N)c1OCCCOc1cc(Cl)ccc1CCC(=O)NO [5·HCl, 3-(4-Chloro-2-[3-(2,4-diamino-6-ethylpyrimidin-5-yloxy)propoxy]phenyi)-N-hydroxypropanamide hydrochloride]
IC50 [3, 12]: 0.279 ± 0.154 nM

CCc1nc(N)nc(N)c1OCCCOc1cc(OC)ccc1/C=C/C(=O)NO [14·HCl, (E)-3-{2-[3-(2,4-Diamino-6-ethylpyrimidin-5-yloxy)propoxy]-4-methoxyphenyl}-N-hydroxyacrylamide hydrochloride]
IC50 [3, 10]: 0.088 ± 0.02 nM
IC50 [3, 11]: < 0.1 nM

CCc1nc(N)nc(N)c1OCCOc1cccc(/C=C/C(=O)NO)c1 [18·HCl, (E)-3-(3-[2-(2,4-Diamino-6-ethylpyrimidin-5-yloxy)ethoxy]phenyl)-N-hydroxyacrylamide hydrochloride]
IC50 [3, 10]: 0.249 ± 0.015 nM

CCc1nc(N)nc(N)c1OCCCOc1cccc(/C=C/C(=O)NO)c1 [19·HCl, (E)-3-{3-[3-(2,4-Diamino-6-ethylpyrimidin-5-yloxy)propoxy]phenyl}-N-hydroxyacrylamide hydrochloride]
IC50 [1]: 41.5 ± 11.9 nM
IC50 [3, 10]: 0.173 ± 0.021 nM
IC50 [3, 11]: < 0.2 nM

CCc1nc(N)nc(N)c1OCCCOc1ccc(/C=C/C(=O)NO)cc1 [20·HCl, (E)-3-{4-[3-(2,4-Diamino-6-ethylpyrimidin-5-yloxy)propoxy]phenyl}-N-hydroxyacrylamide hydrochloride]
IC50 [3, 10]: 0.117 ± 0.045 nM
IC50 [3, 11]: < 0.2 nM

CCN(CC)CCCC(C)Nc1ccnc2cc(Cl)ccc12 (centres unmarked) [CQ, chloroquine, reference compound]
parasitemia (mean ± sd) ([2]; Experiment 3, positive control, 10 mg/kg p.o. once a day for 4 days, day 4 p.i.): 0%
parasitemia (mean ± sd) ([2]; Experiment 3, positive control, 10 mg/kg p.o. once a day for 4 days, day 5 p.i.): 0%
parasitemia (mean ± sd) ([2]; Experiment 3, positive control, 10 mg/kg p.o. once a day for 4 days, day 6 p.i.): 0%
parasitemia (mean ± sd) ([2]; Experiment 3, positive control, 10 mg/kg p.o. once a day for 4 days, day 7 p.i.): 0%
parasitemia (mean ± sd) ([2]; Experiment 3, positive control, 10 mg/kg p.o. once a day for 4 days, day 8 p.i.): 0%
parasitemia (mean ± sd) ([2]; Experiment 3, positive control, 10 mg/kg p.o. once a day for 4 days, day 10 p.i.): 0%
IC50 [3, 12]: 4.7 ± 1.7 nM

CCc1nc(N)nc(N)c1OCCCOc1ccccc1CCC(=O)NOCc1ccccc1 [Compound 7, N-(Benzyloxy)-3-(2-(3-(2,4-diamino-6-ethylpyrimidin-5-yloxy)propoxy)phenyl)propanamide]
IC50 [3, 10]: 0.497 ± 0.055 nM

CCc1nc(N)nc(N)c1OCCCOc1cc(C(=O)NO)ccc1Cl [Compound 9, 4-Chloro-3-[3-(2,4-diamino-6-ethylpyrimidin-5-yloxy)propoxy]-N-hydroxybenzamide]
IC50 [1]: 16.9 ± 3.2 nM
IC50 [3, 10]: 0.172 ± 0.027 nM
IC50 [3, 11]: < 0.2 nM

CCc1nc(N)nc(N)c1OCCCOc1cc(C(=O)NO)ccc1F [Compound 10, 3-(3-[2,4-Diamino-6-ethylpyrimidin-5-yloxy)propoxy]-4-fluoro-N-hydroxybenzamide]
IC50 [3, 10]: 0.39 ± 0.012 nM

CCc1nc(N)nc(N)c1OCCCOc1cccc(C(=O)NOCc2ccc(OC(C)=O)cc2)c1 [Compound 11, N-(4-Acetoxybenzyloxy)-3-[3-(2,4-diamino-6-ethylpyrimidin-5-yloxy)propoxy]benzamide]
ranking of activity against P. berghei infection ([2]; Experiment 3, 1 mg/kg p.o. twice a day on days 0-3): most active
IC50 [3, 10]: 1.02 ± 0.68 nM
IC50 [3, 11]: < 0.2 nM

CCc1nc(N)nc(N)c1OCCCOc1cc(Cl)ccc1/C=C/C(=O)NO [Compound 15, (E)-3-{4-Chloro-2-[3-(2,4-diamino-6-ethylpyrimidin-5-yloxy)propoxy]phenyl}-N-hydroxyacrylamide]
IC50 [1]: 4 ± 0.4 nM
IC50 [3, 10]: 0.082 ± 0.007 nM
IC50 [3, 11]: < 0.1 nM

CCc1nc(N)nc(N)c1OCCCOc1ccccc1/C=C/C(=O)NOCc1ccc(OC(C)=O)cc1 [Compound 16, (E)-N-(4-Acetoxybenzyloxy)-3-{2-[3-(2,4-diamino-6-ethylpyrimidin-5-yloxy)propoxy]phenyl}acrylamide]
number of mice showing blood parasites [2, 4]: 1/5
parasitemia (mean ± sd) ([2]; Experiment 3, Balb/C mice, 1 mg/kg p.o. twice a day on days 0-3, day 4 p.i., 1 mg/kg): 0,02 ± 0,04%
number of mice showing blood parasites [2, 5]: 2/5
parasitemia (mean ± sd) [2, 5]: 0,48 ± 0,72%
number of mice showing blood parasites [2, 6]: 3/5
parasitemia (mean ± sd) [2, 6]: 2,22 ± 2,44%
number of mice showing blood parasites [2, 7]: 3/5
parasitemia (mean ± sd) [2, 7]: 5,21 ± 7,86%
number of mice showing blood parasites [2, 8]: 5/5
parasitemia (mean ± sd) [2, 8]: 5,33 ± 5,64%
number of mice showing blood parasites [2, 9]: 5/5
parasitemia (mean ± sd) [2, 9]: 9,25 ± 7,38%
IC50 [3, 10]: 0.067 ± 0.005 nM
IC50 [3, 11]: < 0.1 nM

CCc1nc(N)nc(N)c1OCCCOc1ccccc1/C=C/C(=O)NOCc1ccccc1 [Compound 17, (E)-N-(Benzyloxy)-3-{2-[3-(2,4-diamino-6-ethylpyrimidin-5-yloxy)propoxy]phenyl}acrylamide]
IC50 [3, 10]: 0.331 ± 0.124 nM

CCc1nc(N)nc(N)c1OCCCOc1cccc(COc2cccc(/C=C/C(=O)NO)c2)c1 [Compound 21, (E)-3-(3-(3-[3-(2,4-Diamino-6-ethylpyrimidin-5-yloxy)propoxy]benzyloxy)phenyl)-N-hydroxyacrylamide hydrochloride]
IC50 [3, 10]: 0.347 ± 0.047 nM

CCc1nc(N)nc(N)c1OCCCOc1cccc(C(=O)NCCCCCCC(=O)NO)c1 [Compound 30, 3-{3-[(2,4-Diamino-6-ethylpyrimidin-5-yl)oxy]propoxy}-N-[7-(hydroxyamino)-7-oxoheptyl]benzamide]
IC50 [3, 10]: 0.876 ± 0.018 nM

CCc1nc(N)nc(N)c1OCCCOc1ccc(C(=O)NCCCCCCC(=O)NO)cc1 [Compound 31, 4-{3-[(2,4-Diamino-6-ethylpyrimidin-5-yl)oxy]propoxy}-N-[7-(hydroxyamino)-7-oxoheptyl]benzamide]
IC50 [1]: 22.8 ± 2.6 nM
IC50 [3, 10]: 0.404 ± 0.136 nM

N-(4-Acetoxybenzyloxy)-3-(2-(3-(2,4-diamino-6-ethylpyrimidin-5-yloxy)propoxy)phenyl)propenamide [Compound 6]
IC50 ([3]; 48 h incubation, mean ± SD, n ≥ 2, read-out: Pf3D7 IC50): 0.169 ± 0.041 nM
